This note sets out measurements from patent publication US20120237614A1, “PEPTIDE ABLE TO DISRUPT THE PROTEIN COMPLEX BETWEEN THE HIS273 MUTADED P53 PROTEIN AND THE ONCOSUPPRESSIVE P73 PROTEIN IN TUMOR CELLS AND THERAPEUTIC USES THEREOF” (priority 2009, published 2012).

Entries after “also recorded” stand apart in the source; their conditions may differ.

Experiment [1] relates to MDA-MB-468 cells (His-273 p53 mutation). In words: Transactivation test (pLUC-BAX, pLUC-p21) in Adriamycin treated MDA-MB-468 cells. The class given is cell-based, human. The conditions noted are these: MDA-MB-468, 3 μM Adriamycin 24 hours post-transfection, luciferase reporter. As for the experimental part:
MDA-MB-468 cells have been transfected using a mixture containing lipofectamine, pLUC-BAX plasmid, β-galactosidase expression vector, SIMP1 and SIMP control peptides. The cells, 24 hours post-transfection, have been treated with 3 μM Adriamycin.
MDA-MB-468 cells have been transfected using a mixture containing lipofectamine, pLUC-BAX plasmid, pLUC-p21, β-galactosidase expression vector, SIMP1 peptides and SIMP1M and SIMP1KO derived mutant thereof. The cells, 24 hours post-transfection, have been treated with 3 μM Adriamicyn and then processed.
(§1) SKBR3, HT-29, MDA-MB-468 cell lines have been transfected with Lipofectamine 2000 according to the supplier instructions (InVitrogen).
(§2) Cells (1.5×10^5) have been transiently transfected using SIMP peptides, expression plasmids and reporter constructs as internal controls for transfection efficiency. After the transfection, SKBR3, HT-29 and MDA-MB-468 have been incubated with 3 μM ADR over 24 hours. Cells have been washed with cold PBS and re-suspended in lysis buffer (Promega) and incubated for 10 min at room temp. Insoluble material has been centrifuged and luciferase activity has been determined using a commercial kit with a luminometer (Turner).

Experiment [2] has as its system HT29 (His-273) colon carcinoma cells. As to the kind of experiment: Transactivation test (pLUC-BAX) in Adriamycin treated HT29 cells. The class given is cell-based, human. The conditions noted are these: 3 μM Adriamycin. As to the method:
(A) In order to verify the SIMPI peptide specificity, independently from the cellular context, we tested SIMP1 peptides in some Adriamicyn treated colon carcinoma HT29 (His-273). cell lines. The cells have been transfected using a mixture containing lipofectamine, pLUC-BAX plasmid, β-galactosidase expression vector, SIMP1 and SIMP5M control peptides. 24 hours post-transfection, have been treated with 3 μM Adriamicyn. (B-C). Viability and inhibition assays have been carried out after transfection using SIMP1 and SIMP5M peptides in HT29 (colon cancer) and MDA-MB-468 (breast cancer) cell lines
as §1, §2

Experiment [3] deals with m-p53 His273 inhibition on p73 transcription activity. In words: Transactivation test with pLUC-BAX reporter in transiently transfected H1299 cells. The conditions noted are these: peptides 20 μM each. The experiment is classed as cell-based, human. As for the experimental part: (A) MDA-MB-468 (5×10^5) cells have been transfected using a lipofectamine containing mixture, βgal expression vector, which normalizes transfection efficiency, and SIMPI peptide (20 μM). Total cellular lysates (1 mg), have been immunoprecipitated with antibodies directed against p73 and immunoglobulins (IgG). Immunoprecipitates and an aliquot (50 μg) of total lysate after 12% acrylamide gel electrophoretic run have been transferred on nitrocellulose membrane and labelled with antibodies shown in the figure. (B) MDA-MB-468 cells, have been transfected using SIMP1 and SIMP5,6. peptides. Successively, cells have been washed and stimulated with 3 μM Adriamycin. Total obtained lysates (30 μg) have been assayed for the expression of PARP and BAX apoptotic proteins. Lysate has been normalized by assaying γ-tubulin expression. (C-D). Transactivation tests have been carried out by transient transfection of H1299 cells using a mixture containing lipofectamine, SIMP1, SIMP5,6 indicated plasmids (20 μM each) together with pLUC-BAX reporter vector. To each reaction mixture an equal amount of […] expression vector was added, in order to normalize the transfection efficiency. […]
To this end, we have analyzed the ability in blocking the His273 p53 induced inhibition on transcription activity. […]

The next experiment concerns the target GST-p53 His175 (Homo sapiens, UniProt P04637, R175H). In words: Dot immunobinding test with purified GST-p53 fusion proteins. The experiment is classed as binding. The conditions noted are these: 20 μg GST fusion purified proteins. As for the experimental part:
(A) Total extracts deriving from SKBR3, (His-175) HT29, (His-273) and H1299 (p53 free) tumour cells have been incubated (1 mg) on SIMP1 and SIMPIKO peptide labelled nitrocellulose membrane and Dot Blot analysed. In (B) the membranes have been incubated with 20 μg of wild type WT GST-p53 purified protein or GST-p53 His-175, GST-p53-His-175, 74-298 or GST alone. In both experiments dots have been detected by labelling the membranes with anti-p53 (DO1) antibody
Nitrocellulose membranes have been cut, washed with water and blotted on the paper filters. The peptides at 250 mM concentration have been transferred on membrane. Labelled membrane has been washed for 10 min. with TBST buffer (10 mM Tris-HCl pH 7.4, 150 mM NaCl, 0.05% (v/v) Tween-20) and then blocked for 45 min with TBST/5% milk. Then the membranes have been incubated for 6 hours at 4° C. in shaker with 1 mg of total protein extract or 20 μg of GST fusion purified proteins. Successively the membranes have been washed with TBST buffer and decorated with anti-p53 antibody (DO1) as a primary antibody. As secondary antibody horse peroxidase conjugated goat antibody has been used. Immunolabelled lanes have been detected using chemiluminescence analysis (Pierce).
The membranes decorated with SIMP peptides also have been incubated with GST-p53 His175, GST p53His74-298, GST WTp53 fusion proteins, GST control.

The test system of another experiment is MDA-MB-468 cells. In words: Apoptotic tests (PARP and BAX expression, Western blot) after Adriamycin. The experiment is classed as cell-based, human. The conditions noted are these: MDA-MB-468, 3 μM Adriamycin. As to the method: (A) MDA-MB-468 (5×10^5) cells have been transfected using a lipofectamine containing mixture, βgal expression vector, which normalizes transfection efficiency, and SIMPI peptide (20 μM). Total cellular lysates (1 mg), have been immunoprecipitated with antibodies directed against p73 and immunoglobulins (IgG). Immunoprecipitates and an aliquot (50 μg) of total lysate after 12% acrylamide gel electrophoretic run have been transferred on nitrocellulose membrane and labelled with antibodies shown in the figure. (B) MDA-MB-468 cells, have been transfected using SIMP1 and SIMP5,6. peptides. Successively, cells have been washed and stimulated with 3 μM Adriamycin. Total obtained lysates (30 μg) have been assayed for the expression of PARP and BAX apoptotic proteins. Lysate has been normalized by assaying γ-tubulin expression. (C-D). Transactivation tests have been carried out by transient transfection of H1299 cells using a mixture containing lipofectamine, SIMP1, SIMP5,6 indicated plasmids (20 μM each) together with pLUC-BAX reporter vector. To each reaction mixture an equal amount of […] expression vector was added, in order to normalize the transfection efficiency.
50 μg of solubilised proteins have been separated by electrophoresis on 10 or 15% SDS-polyacrylamide gel. Western blot analysis has been carried out using anti-p53 primary antibodies (DO1 Calbiochem), rabbit anti-PARP, rabbit polyclonal anti-Bax, anti-p21 and anti-tubulin monoclonal antibodies (Calbiochem). Goat anti-mouse and goat anti-rabbit horse peroxidase conjugated secondary antibodies (Amersham) have been used for the expression analyses. Immunolabelled lanes have been detected using chemiluminescence analysis (Pierce).
To this end cell viability and apoptotic tests (FIG. 1B, FIG. 4 B-C) on MDA-MB468 breast carcinoma have been carried out.

Turning to “FQQSSTAKSATW (p73 SIMP (aa 131-142)) [SIMP1]”, the “Adriamycin chemosensitivity / p73 transcription response” value in experiment [1] is listed as “increases the Adriamycin sensitivity; also recorded: increase Adriamycin chemosensitivty; also recorded: increased p73 transcription response as an adriamycin response”. Besides, the “sensitivity to Adriamycin” value in experiment [2] was “made the same more sensitive to the treatment with Adriamycin”. The “restoration of p73 transcription activity inhibited by m-p53 His273” value in experiment [3] is “modify mutated p53/p73 protein complex restoring p73 oncosuppressive functions; also recorded: blocked the m-p53 His273 inhibition on p73 transcription activity”. Further, the “reaction with GST-p53 fusion proteins (dot blot, anti-p53 DO1)” value with GST-p53 His175 is “no reaction was observed”. Also, the apoptotic response result is on record as “increase the apoptotic response to chemotherapeutic agents” in the experiment on MDA-MB-468 cells and “increases the apoptotic response” in the experiment on MDA-MB-468 cells (listed as SIMPI).
